Reference: publication PMC8206213, “An L-2-hydroxyglutarate biosensor based on specific transcriptional regulator LhgR” (Nature Communications, 2021)
Several values for one entry are separate records, joined by “and”; a condition that tells them apart may be missing. Equal entries are not always repeated. Entries after “also recorded” stand apart in the source; their conditions may differ.

Columns and labels:
LhgR = assay: EMSA, effect of compounds on LhgR binding to the lhgO promoter region F1; parameters: species or system Pseudomonas putida W619; settings: 50 mM compound, 10 nM F1, 60 nM LhgR
How it was run: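 Purified LhgR was preincubated 15 min at 30 °C with candidate effectors (L-lysine, 5-aminovalerate, glutarate, L-2-HG, D-2-HG, 2-KG, succinate), then 30 min at 30 °C with 10 nM F1 or F2 DNA. Buffer: 10 mM Tris-HCl pH 7.4, 50 mM KCl, 10% glycerol, 1 mM DTT. Shift seen on 6% native PAGE with SYBR green I.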

LHGFR0N3C [1] = assay: Specificity of purified LHGFR0N3C, emission ratio with 240 μM compounds; type: binding, Pseudomonas putida W619; settings: 240 μM compound
LHGFR0N3C [2] = assay: Influence of other compounds on the response of purified LHGFR0N3C to L-2-HG; type: binding, Pseudomonas putida W619
How it was run: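 Purified L-2-HG biosensors were mixed 3:1 with test compounds in 50 mM Tris-HCl pH 7.4, excited at 430 nm, and the 528 nm (Venus)/485 nm (mTFP) emission was read. Responses were fitted with a Hill model giving apparent Kd and Hill slope.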

[3] = test system: LHGFR0N3C expressed in E. coli BL21(DE3); assay: Specificity of LHGFR0N3C expressed in E. coli BL21(DE3), 1 mM compounds; type: cell-based; settings: 1 mM compound, Fig. 5c
Procedure: To characterize the sensitivity and specificity of LHGFR expressed in E. coli BL21(DE3), 90 μL cell suspensions following 8 h carbon starvation were mixed with 10 μL increasing concentrations of L-2-HG or other compounds, and then added into a black 96-well plate (total 100 μL/per well), the fluorescence intensities were determined using an EnSight microplate reader (PerkinElmer, USA) and the following instrument settings: excitation at 430 nm, emission at 485 nm (mTFP) and 528 nm (Venus), time intervals of 5 min, the temperature at 37 °C, and shake at 180 rpm.

O=C(O)CC[C@H](O)C(=O)O [L-2-HG, L-2-Hydroxyglutarate]
Effect on LhgR binding to the lhgO promoter region F1 (LhgR): prevents LhgR binding to the lhgO promoter region; also recorded: release of LhgR from fragments F1 was observed only in the presence of L-2-HG | Emission ratio (LHGFR0N3C [1]): 2.0582 and 2.052 and 2.059 | Emission ratio of 528/485 (LHGFR0N3C [2]; L-2-HG concentration 0.01, in the absence of 2-KG, Suppl. Fig. 9g): 1.4026 and 1.407 and 1.399 | Emission ratio of 528/485 (LHGFR0N3C [2]; L-2-HG concentration 0.01, in the absence of D-2-HG, Suppl. Fig. 9e): 1.361 and 1.439 and 1.415 | Emission ratio of 528/485 (LHGFR0N3C [2]; L-2-HG concentration 0.01, in the presence of 2-KG, Suppl. Fig. 9g): 1.363 | Emission ratio of 528/485 (LHGFR0N3C [2]; L-2-HG concentration 0.01, in the presence of D-2-HG, Suppl. Fig. 9e): 1.406 and 1.467 and 1.446 | Emission ratio of 528/485 (LHGFR0N3C [2]; L-2-HG concentration 0.1, in the absence of D-2-HG, Suppl. Fig. 9e): 1.367 and 1.431 and 1.424 | Emission ratio of 528/485 (LHGFR0N3C [2]; L-2-HG concentration 0.1, in the presence of D-2-HG, Suppl. Fig. 9e): 1.407 and 1.464 and 1.416 | Emission ratio of 528/485 (LHGFR0N3C [2]; L-2-HG concentration 0.2, in the absence of D-2-HG, Suppl. Fig. 9e): 1.3539 and 1.456 and 1.407 | Emission ratio of 528/485 (LHGFR0N3C [2]; L-2-HG concentration 0.2, in the presence of D-2-HG, Suppl. Fig. 9e): 1.417 and 1.4607 and 1.422 | Emission ratio of 528/485 (LHGFR0N3C [2]; L-2-HG concentration 1, in the absence of D-2-HG, Suppl. Fig. 9e): 1.3919 and 1.421 and 1.443 | Emission ratio of 528/485 (LHGFR0N3C [2]; L-2-HG concentration 1, in the presence of D-2-HG, Suppl. Fig. 9e): 1.445 and 1.477 and 1.4328 | Emission ratio of 528/485 (LHGFR0N3C [2]; L-2-HG concentration 2, in the absence of D-2-HG, Suppl. Fig. 9e): 1.397 and 1.479 and 1.464 | Emission ratio of 528/485 (LHGFR0N3C [2]; L-2-HG concentration 2, in the presence of D-2-HG, Suppl. Fig. 9e): 1.472 and 1.492 and 1.494 | Emission ratio of 528/485 (LHGFR0N3C [2]; L-2-HG concentration 10, in the absence of D-2-HG, Suppl. Fig. 9e): 1.597 and 1.623 and 1.644 | Emission ratio of 528/485 (LHGFR0N3C [2]; L-2-HG concentration 10, in the presence of D-2-HG, Suppl. Fig. 9e): 1.611 and 1.627 and 1.593 | Emission ratio of 528/485 (LHGFR0N3C [2]; L-2-HG concentration 20, in the absence of 2-KG, Suppl. Fig. 9g): 1.741 and 1.744 and 1.757 | Emission ratio of 528/485 (LHGFR0N3C [2]; L-2-HG concentration 20, in the absence of D-2-HG, Suppl. Fig. 9e): 1.77 and 1.748 and 1.778 | Emission ratio of 528/485 (LHGFR0N3C [2]; L-2-HG concentration 20, in the presence of 2-KG, Suppl. Fig. 9g): 1.682 and 1.691 and 1.6943 | Emission ratio of 528/485 (LHGFR0N3C [2]; L-2-HG concentration 20, in the presence of D-2-HG, Suppl. Fig. 9e): 1.748 and 1.775 and 1.796 | Emission ratio of 528/485 (LHGFR0N3C [2]; L-2-HG concentration 100, in the absence of 2-KG, Suppl. Fig. 9g): 1.995 and 2.046 and 2.033 | Emission ratio of 528/485 (LHGFR0N3C [2]; L-2-HG concentration 100, in the absence of D-2-HG, Suppl. Fig. 9e): 1.9389 and 1.983 and 2.002 | Emission ratio of 528/485 (LHGFR0N3C [2]; L-2-HG concentration 100, in the presence of 2-KG, Suppl. Fig. 9g): 1.979 and 1.983 and 2.015 | Emission ratio of 528/485 (LHGFR0N3C [2]; L-2-HG concentration 100, in the presence of D-2-HG, Suppl. Fig. 9e): 2.01 and 1.942 and 2.017 | Emission ratio of 528/485 (LHGFR0N3C [2]; L-2-HG concentration 200, in the absence of 2-KG, Suppl. Fig. 9g): 2.097 and 2.071 and 2.086 | Emission ratio of 528/485 (LHGFR0N3C [2]; L-2-HG concentration 200, in the absence of D-2-HG, Suppl. Fig. 9e): 2.026 and 2.0171 and 2.117 | Emission ratio of 528/485 (LHGFR0N3C [2]; L-2-HG concentration 200, in the presence of 2-KG, Suppl. Fig. 9g): 2.058 and 2.06 and 2.089 | Emission ratio of 528/485 (LHGFR0N3C [2]; L-2-HG concentration 200, in the presence of D-2-HG, Suppl. Fig. 9e): 2.039 and 1.978 and 2.053 | Emission ratio of 528/485 (LHGFR0N3C [2]; L-2-HG concentration 1000, in the absence of 2-KG, Suppl. Fig. 9g): 2.1941 and 2.174 and 2.177 | Emission ratio of 528/485 (LHGFR0N3C [2]; L-2-HG concentration 1000, in the absence of D-2-HG, Suppl. Fig. 9e): 2.163 and 2.184 and 2.199 | Emission ratio of 528/485 (LHGFR0N3C [2]; L-2-HG concentration 1000, in the presence of 2-KG, Suppl. Fig. 9g): 2.1301 and 2.167 and 2.163 | Emission ratio of 528/485 (LHGFR0N3C [2]; L-2-HG concentration 1000, in the presence of D-2-HG, Suppl. Fig. 9e): 2.202 and 2.174 and 2.19 | Emission ratio of 528/485 (LHGFR0N3C [2]; L-2-HG concentration 2000, in the absence of 2-KG, Suppl. Fig. 9g): 2.149 and 2.166 and 2.182 | Emission ratio of 528/485 (LHGFR0N3C [2]; L-2-HG concentration 2000, in the absence of D-2-HG, Suppl. Fig. 9e): 2.176 and 2.24 and 2.201 | Emission ratio of 528/485 (LHGFR0N3C [2]; L-2-HG concentration 2000, in the presence of 2-KG, Suppl. Fig. 9g): 2.154 and 2.1518 and 2.167 | Emission ratio of 528/485 (LHGFR0N3C [2]; L-2-HG concentration 2000, in the presence of D-2-HG, Suppl. Fig. 9e): 2.195 and 2.175 and 2.2011 | Emission ratio (LHGFR0N3C [2]; Suppl. Fig. 9a, L-2-HG alone or with the compound, three replicates): 2.053 and 2.0953 and 2.06 | Emission ratio ([3]; 0 min): 1.025 and 0.9964 and 0.9897 | Emission ratio ([3]; 5 min): 1.0102 and 1.019 and 1.007 | Emission ratio ([3]; 10 min): 1.0776 and 1.069 and 1.057 | Emission ratio ([3]; 15 min): 1.152 and 1.136 and 1.118 | Emission ratio ([3]; 20 min): 1.219 and 1.203 and 1.181 | Emission ratio ([3]; 25 min): 1.256 and 1.2441 and 1.233 | Emission ratio ([3]; 30 min): 1.305 and 1.29 and 1.273 | Emission ratio ([3]; 35 min): 1.298 and 1.29 and 1.292 | Emission ratio ([3]; 40 min): 1.314 and 1.317 and 1.304 | Emission ratio ([3]; 45 min): 1.326 and 1.316 and 1.3122 | Emission ratio ([3]; 50 min): 1.332 and 1.331 and 1.305
